Results on one compound are retold here after publication PMC6584481, “Quercetin protects rats from catheter‐related Staphylococcus aureus infections by inhibiting coagulase activity” (Journal of Cellular and Molecular Medicine, 2019).

What all share (assay type): binding
Experiment [1] concerns the target T1, Coagulase (Coa) (Staphylococcus aureus, UniProt P17855, H230A).
T1 sequence (P17855 27-715 H230A): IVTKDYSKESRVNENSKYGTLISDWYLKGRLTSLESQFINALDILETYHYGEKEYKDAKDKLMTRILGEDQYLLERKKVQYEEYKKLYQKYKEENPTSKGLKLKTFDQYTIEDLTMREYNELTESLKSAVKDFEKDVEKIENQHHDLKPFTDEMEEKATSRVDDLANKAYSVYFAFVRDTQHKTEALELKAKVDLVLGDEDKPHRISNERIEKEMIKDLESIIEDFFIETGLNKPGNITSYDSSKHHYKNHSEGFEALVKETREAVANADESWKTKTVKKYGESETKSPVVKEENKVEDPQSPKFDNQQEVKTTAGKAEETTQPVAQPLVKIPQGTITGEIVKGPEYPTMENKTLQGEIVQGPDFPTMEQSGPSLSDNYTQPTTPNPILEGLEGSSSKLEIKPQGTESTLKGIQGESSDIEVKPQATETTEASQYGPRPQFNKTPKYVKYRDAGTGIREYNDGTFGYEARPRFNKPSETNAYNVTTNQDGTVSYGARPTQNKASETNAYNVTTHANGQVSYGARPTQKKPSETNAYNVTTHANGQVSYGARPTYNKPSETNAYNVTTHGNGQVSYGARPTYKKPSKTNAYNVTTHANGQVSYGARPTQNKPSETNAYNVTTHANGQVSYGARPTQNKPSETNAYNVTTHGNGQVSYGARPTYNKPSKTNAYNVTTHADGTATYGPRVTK
Description: fluorescence spectroscopy quenching (KA). The following applies: read-out: H228A (converted).

The target in experiment [2] is Coagulase (Coa) (Staphylococcus aureus, UniProt P17855). As to the kind of experiment: fluorescence spectroscopy quenching (KA); thermal shift of […]°C; plasma/blood coagulation inhibition with recombinant Coa. The following applies: read-out: WT-Coa (converted).
For experiment [3], the target named is T2, Coagulase (Coa) (Staphylococcus aureus, UniProt P17855, L223A).
T2 sequence (P17855 27-715 L223A): T1 sequence (P17855 27-715 H230A)
Description: fluorescence spectroscopy quenching (KA). The following applies: read-out: L221A (converted).

Regarding `O=c1c(O)c(-c2ccc(O)c(O)c2)oc2cc(O)cc(O)c12` [quercetin, 3,3′,4′,5,7‐pentahydroxyflavone], the values for the Kd at Coagulase (Coa) [1], on Coagulase (Coa) [2] and at Coagulase (Coa) [3] were 25 µM, 21.7 µM and 32.3 µM, respectively.
